Measurements taken from PubChem BioAssay (NCI).
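Cells were grown in 96-well plates and exposed to each compound for 48 hours at five concentrations; endpoints were interpolated linearly between bracketing concentrations, or set to the highest concentration if not reached. Here, GI50 denotes the concentration required for 50% inhibition of growth. TGI denotes the concentration required for complete inhibition of growth.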

How the values were obtained:
Assay in all cases: DTP human tumour cell line panel, 48 h
NCI-H522 lung = system: NCI-H522 lung
SF-539 CNS = system: SF-539 CNS
MOLT-4 leukemia = system: MOLT-4 leukemia
786-0 renal = system: 786-0 renal
SNB-19 CNS = system: SNB-19 CNS
SR leukemia = system: SR leukemia
MDA-MB-435 = system: MDA-MB-435
T-47D breast = system: T-47D breast
RXF 393 renal = system: RXF 393 renal
PC-3 prostate = system: PC-3 prostate

Compound	TGI (NCI-H522 lung) [µM]	TGI (SF-539 CNS) [µM]	TGI (MOLT-4 leukemia) [µM]	TGI (786-0 renal) [µM]	TGI (SNB-19 CNS) [µM]	TGI (SR leukemia) [µM]	TGI (MDA-MB-435) [µM]	TGI (T-47D breast) [µM]	TGI (RXF 393 renal) [µM]	TGI (PC-3 prostate) [µM]	GI50 (T-47D breast) [µM]	GI50 (PC-3 prostate) [µM]	GI50 (SF-539 CNS) [µM]	GI50 (SR leukemia) [µM]	GI50 (MDA-MB-435) [µM]	GI50 (SNB-19 CNS) [µM]	GI50 (MOLT-4 leukemia) [µM]	GI50 (RXF 393 renal) [µM]	GI50 (NCI-H522 lung) [µM]
N=C1SCCS1	> 100	> 100	> 100	> 100	> 100	–	–	–	–	–	–	–	–	–	–	–	–	–	–
Nc1cccc2cc(S(=O)(=O)Nc3ccc(C(=O)O)cc3)ccc12	> 100	–	–	> 100	> 100	> 100	> 100	> 100	> 100	> 100	–	–	–	–	–	–	–	–	–
CC(C)=CCC/C(C)=C/CC/C(C)=C/C(O)c1ccccc1 (centres undefined)	> 10	–	–	–	35.3	44.1	–	–	–	–	–	–	–	–	–	–	–	–	–
O=C1c2ccccc2-c2ccc(N(Cc3ccc(Br)cc3)Cc3ccc(Br)cc3)cc21	> 100	> 100	> 100	> 100	> 100	> 100	> 100	> 100	> 100	> 100	–	–	–	–	–	–	–	–	–
O=C(c1no[n+]([O-])c1C(=O)c1csc2ccccc12)c1csc2ccccc12	0.843	8.36	3.17	0.713	32.3	0.27	21.5	13.7	19.4	8.33	–	–	–	–	–	–	–	–	–
CC(=O)NC1C(OCc2ccccc2)OC(CO)C(O)C1OC(C)C(=O)NC(C(=O)NC(CCC(=O)Nc1ccc2c(c1)CN1C(=O)c3ccccc3C1=N2)C(N)=O)C(C)C (centres undefined)	–	> 100	> 100	> 100	> 100	> 100	> 100	> 100	> 100	> 100	–	–	–	–	–	–	–	–	–
NC(=O)OCc1c(O)c2c(c(O)c1COC(N)=O)C(=O)C=CC2=O	> 100	> 100	> 100	–	–	> 100	–	–	–	–	–	–	–	–	–	–	–	–	–
CC(=O)Nc1ccc2c(c1)C(=Nc1ccc(C(=O)O)cc1)c1ccccc1-2	> 100	–	> 100	> 100	> 100	–	> 100	> 100	> 100	> 100	–	–	–	–	–	–	–	–	–
CCOC(=O)c1c(C)n(-c2ccc(C)cc2)c2c1cc(O)c1[nH]c3c(c12)CCCC3	27.4	30.2	22.4	37.1	67.5	11.5	62.2	> 100	27	52.3	–	–	–	–	–	–	–	–	–
CC(C)c1cccc(C(C)C)c1NC(=S)Nc1ccccc1	–	> 100	> 100	–	> 100	> 100	–	–	> 100	–	–	–	–	–	–	–	–	–	–
O=C1C(c2c(O)n(-c3ccccc3)c3ccccc23)=Nc2ccccc21	> 100	–	> 100	36.7	> 100	> 100	> 100	71.9	41.6	80.9	–	–	–	–	–	–	–	–	–
CSc1nc(NC2OC(CO)C(O)C(O)C2O)c(N)c(=O)n1C (centres undefined)	> 100	> 100	> 100	–	> 100	–	–	–	> 100	–	–	–	–	–	–	–	–	–	–
CCCCC[C@H]1CC=CC(=O)O1	11.8	4.82	18.8	13.3	28.2	15.4	23	30.9	9.16	69.3	–	–	–	–	–	–	–	–	–
CCCCCCCCCCCCCCCc1ccc(C(=O)C[n+]2ccccc2)cc1	–	–	–	–	–	–	–	3.77	–	3.77	1.38	1.23	–	–	–	–	–	–	–
CCN(CC)CCSc1nc2c([N+](=O)[O-])cccc2[nH]1	> 100	> 100	> 100	–	–	–	–	–	> 100	–	–	–	–	–	–	–	–	–	–
COC(=O)c1c(OC(C)=O)ccc2c1c1c(n2Cc2ccccc2)C(=O)c2ccccc2C1=O	46.6	33.7	> 100	52.4	97.1	64.5	35.8	56.3	37.8	59.8	–	–	–	–	–	–	–	–	–
O=C1Nc2ccccc2/C1=C\c1c(Cl)[nH]c2ccccc12	3.54	1.43	12.6	3.66	5.21	0.918	0.417	> 100	3.55	3.46	–	–	–	–	–	–	–	–	–
COc1ccc([N+](=O)[O-])cc1[I+]c1cc([N+](=O)[O-])ccc1OC	> 100	> 100	–	> 100	> 100	26.7	49.3	> 100	> 100	> 100	–	–	–	–	–	–	–	–	–
N/C(=N/O)c1cn(C2OC(CO)C(O)C2O)c2ncnc(NO)c12 (centres undefined)	0.392	5.03	0.395	> 100	> 100	0.262	0.805	> 35.3	14.7	3.17	–	–	–	–	–	–	–	–	–
N=C(N)c1ccc(-c2ccc(-c3ccccc3)o2)cc1	–	3.38	–	–	6.83	5.29	3.03	–	–	5.97	–	2.28	1.65	1.67	1.66	2.54	–	–	–
CC[n+]1c(/C=C/c2ccc(N(CCCl)CCCl)cc2)ccc2cc(Br)ccc21	4.66	4.29	–	10.1	2.57	–	–	–	–	–	–	–	–	132	–	–	109	588	–
COc1cccc(/C=N/[N-]C(N)=O)c1[O-].[OH3+].[Zn+2]	> 100	> 100	> 100	> 100	> 100	> 100	–	–	> 100	–	–	–	–	–	–	–	–	–	–
O=C(Nc1ccc(-n2cc(-c3ccncc3)c(-c3ccc(O)c(Cl)c3)n2)cc1)c1ccc(Cl)c(Cl)c1	> 32.5	2.25	> 32.5	–	> 32.5	> 32.5	> 32.5	> 32.5	1.1	> 32.5	2.37	1.35	0.656	1.19	2.06	2.67	1.37	0.49	0.801
Cc1ccc(CCCC(=O)O)cc1C	> 100	–	> 100	> 100	> 100	> 100	> 100	–	> 100	> 100	–	–	–	–	–	–	–	–	–
CNC1=C(C)C(=O)C2=C(C1=O)C(COC(N)=O)C1(OC)C3NC3CN21 (centres undefined)	2.22	1.92	> 100	–	–	> 100	5.67	18.1	–	41.8	–	–	–	–	–	–	–	–	–
CC(=O)NC1C(OCc2ccccc2)OC(CO)C(O)C1OCC(=O)NC(C)C(=O)NC(CCC(=O)Nc1ccc2c(c1)CN1C(=O)c3ccccc3C1=N2)C(N)=O (centres undefined)	–	> 100	> 100	> 100	> 100	> 100	> 100	> 100	> 100	> 100	–	–	–	–	–	–	–	–	–
